From paper doi:10.1101/2025.03.25.645215v1 (biorxiv, 2025)

Tests used:
[1] = target: DAT (hDAT) (Homo sapiens, UniProt Q01959); test: 3H-dopamine uptake inhibition, HEK293, 384-well; type: cell-based
[2] = target: T1, B^0AT2/SLC6A15 (eGFP-hSLC6A15) (Homo sapiens, UniProt Q9H2J7); test: cell-based; design: species or system HEK293 eGFP-hSLC6A15
T1 sequence (Q9H2J7 1-730): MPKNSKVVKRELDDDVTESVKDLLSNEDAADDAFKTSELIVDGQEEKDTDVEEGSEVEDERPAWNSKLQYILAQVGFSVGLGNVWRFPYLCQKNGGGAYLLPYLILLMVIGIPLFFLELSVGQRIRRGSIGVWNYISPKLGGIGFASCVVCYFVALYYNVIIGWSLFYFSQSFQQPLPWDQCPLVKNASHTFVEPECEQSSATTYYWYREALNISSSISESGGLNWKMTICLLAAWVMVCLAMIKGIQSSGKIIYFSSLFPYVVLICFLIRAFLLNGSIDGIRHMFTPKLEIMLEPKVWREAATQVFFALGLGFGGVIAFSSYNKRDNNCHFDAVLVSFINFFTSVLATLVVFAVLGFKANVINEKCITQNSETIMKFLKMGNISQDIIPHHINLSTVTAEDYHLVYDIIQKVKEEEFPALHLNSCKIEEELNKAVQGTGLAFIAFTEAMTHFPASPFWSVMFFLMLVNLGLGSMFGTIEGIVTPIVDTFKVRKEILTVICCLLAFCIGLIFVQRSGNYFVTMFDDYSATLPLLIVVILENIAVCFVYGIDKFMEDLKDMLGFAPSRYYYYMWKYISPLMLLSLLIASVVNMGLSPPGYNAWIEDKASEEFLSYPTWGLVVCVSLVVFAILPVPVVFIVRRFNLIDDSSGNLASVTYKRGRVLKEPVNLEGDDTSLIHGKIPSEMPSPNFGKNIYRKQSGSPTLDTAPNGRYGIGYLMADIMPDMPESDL

[3] = system: NTT4/SLC6A17 (NTT4-B^0AT2 chimera); test: 3H-proline uptake inhibition, HEK293, 384-well; type: cell-based; conditions: blanket statement for all 1,5-benzodiazepine analogs
[4] = target: GAT1 (hGAT1) (Homo sapiens, UniProt P30531); test: 3H-GABA uptake inhibition, HEK293, 384-well; type: cell-based
GAT1 (hGAT1), sequence (P30531 whole entry): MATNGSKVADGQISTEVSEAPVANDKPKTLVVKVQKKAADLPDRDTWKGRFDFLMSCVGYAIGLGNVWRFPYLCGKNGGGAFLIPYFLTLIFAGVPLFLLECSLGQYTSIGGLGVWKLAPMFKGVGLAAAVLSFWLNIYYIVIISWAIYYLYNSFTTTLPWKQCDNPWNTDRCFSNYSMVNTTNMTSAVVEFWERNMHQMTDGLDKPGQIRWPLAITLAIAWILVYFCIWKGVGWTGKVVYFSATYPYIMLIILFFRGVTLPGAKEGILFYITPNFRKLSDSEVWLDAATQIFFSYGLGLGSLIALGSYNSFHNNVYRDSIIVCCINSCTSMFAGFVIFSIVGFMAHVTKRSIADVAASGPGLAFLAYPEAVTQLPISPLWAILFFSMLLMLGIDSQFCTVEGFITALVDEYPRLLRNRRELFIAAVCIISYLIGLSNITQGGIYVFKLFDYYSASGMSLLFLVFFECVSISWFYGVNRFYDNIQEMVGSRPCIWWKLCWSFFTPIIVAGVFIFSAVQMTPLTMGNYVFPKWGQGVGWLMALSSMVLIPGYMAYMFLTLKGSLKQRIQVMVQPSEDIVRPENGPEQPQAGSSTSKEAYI

[5] = target: SERT (hSERT) (Homo sapiens, UniProt P31645); test: 3H-5HT uptake inhibition, HEK293, 384-well; type: cell-based
SERT (hSERT), sequence (P31645 whole entry): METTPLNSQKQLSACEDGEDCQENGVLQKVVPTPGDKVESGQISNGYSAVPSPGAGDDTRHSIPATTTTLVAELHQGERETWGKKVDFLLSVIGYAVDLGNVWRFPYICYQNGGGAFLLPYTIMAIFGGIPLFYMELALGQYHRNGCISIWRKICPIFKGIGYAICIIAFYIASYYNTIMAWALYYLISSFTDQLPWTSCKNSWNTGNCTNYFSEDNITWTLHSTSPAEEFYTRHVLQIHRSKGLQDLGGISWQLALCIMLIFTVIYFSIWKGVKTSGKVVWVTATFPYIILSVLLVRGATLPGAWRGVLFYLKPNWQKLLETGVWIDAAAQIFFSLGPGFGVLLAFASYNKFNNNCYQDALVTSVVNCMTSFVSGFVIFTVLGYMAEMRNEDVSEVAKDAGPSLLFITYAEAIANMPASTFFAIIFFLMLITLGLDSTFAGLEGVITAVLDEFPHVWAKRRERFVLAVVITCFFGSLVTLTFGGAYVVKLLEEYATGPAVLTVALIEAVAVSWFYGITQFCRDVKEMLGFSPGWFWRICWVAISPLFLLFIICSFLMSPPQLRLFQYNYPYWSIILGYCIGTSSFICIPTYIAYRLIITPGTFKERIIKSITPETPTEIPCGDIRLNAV

[6] = target: T2, B^0AT2/SLC6A15 (AAV mouse SLC6A15 in primary hippocampal neurons) (Mus musculus, UniProt Q8BG16); test: 3H-proline uptake inhibition, AAV-transduced primary hippocampal neurons; type: cell-based
T2 sequence (Q8BG16 1-729): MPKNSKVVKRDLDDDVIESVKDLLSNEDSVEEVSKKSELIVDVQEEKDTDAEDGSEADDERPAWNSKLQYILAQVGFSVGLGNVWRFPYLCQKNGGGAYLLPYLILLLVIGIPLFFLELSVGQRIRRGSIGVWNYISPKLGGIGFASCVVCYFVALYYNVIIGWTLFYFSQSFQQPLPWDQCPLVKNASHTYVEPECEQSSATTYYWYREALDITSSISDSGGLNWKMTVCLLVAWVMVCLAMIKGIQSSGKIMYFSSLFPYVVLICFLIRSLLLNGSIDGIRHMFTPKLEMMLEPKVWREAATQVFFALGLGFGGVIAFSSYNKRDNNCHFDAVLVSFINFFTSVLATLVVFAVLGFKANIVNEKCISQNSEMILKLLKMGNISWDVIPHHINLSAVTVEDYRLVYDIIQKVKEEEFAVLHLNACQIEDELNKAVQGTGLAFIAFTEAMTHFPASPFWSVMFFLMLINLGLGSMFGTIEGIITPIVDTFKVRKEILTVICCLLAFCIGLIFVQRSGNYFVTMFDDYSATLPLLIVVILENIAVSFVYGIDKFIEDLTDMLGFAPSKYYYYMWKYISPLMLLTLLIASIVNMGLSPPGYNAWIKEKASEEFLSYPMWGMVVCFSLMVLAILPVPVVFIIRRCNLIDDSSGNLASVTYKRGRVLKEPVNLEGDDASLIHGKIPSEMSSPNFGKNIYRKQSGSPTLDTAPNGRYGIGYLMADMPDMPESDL

DAT (hDAT), sequence (Q01959 whole entry): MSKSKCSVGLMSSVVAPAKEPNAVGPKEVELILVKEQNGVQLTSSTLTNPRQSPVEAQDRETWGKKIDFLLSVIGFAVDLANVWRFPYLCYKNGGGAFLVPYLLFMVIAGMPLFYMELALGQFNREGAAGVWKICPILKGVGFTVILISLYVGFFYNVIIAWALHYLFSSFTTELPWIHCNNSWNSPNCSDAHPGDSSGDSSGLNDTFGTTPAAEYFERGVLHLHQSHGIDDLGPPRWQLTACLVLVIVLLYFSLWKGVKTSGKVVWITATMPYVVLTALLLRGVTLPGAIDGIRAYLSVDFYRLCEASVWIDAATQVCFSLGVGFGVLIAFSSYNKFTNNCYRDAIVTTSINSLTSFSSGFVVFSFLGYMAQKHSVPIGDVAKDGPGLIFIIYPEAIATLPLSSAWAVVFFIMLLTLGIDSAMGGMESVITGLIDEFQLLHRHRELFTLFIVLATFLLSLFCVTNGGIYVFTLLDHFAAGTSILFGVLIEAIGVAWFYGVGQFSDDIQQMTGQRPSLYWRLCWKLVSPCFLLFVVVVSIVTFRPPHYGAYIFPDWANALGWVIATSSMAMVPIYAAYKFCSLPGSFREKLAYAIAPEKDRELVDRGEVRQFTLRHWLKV

COc1ccc(C2C3=C(CC(C)CC3=O)Nc3ccccc3N2C(=O)c2ccccc2)cc1 (stereo not drawn) [14c]
IC50 [1]: > 80 µM | IC50 [2]: 0.24 ± 0.05 µM | IC50 [3]: > 80 µM | IC50 [4]: > 80 µM | IC50 [5]: > 80 µM | IC50 [6]: 1 ± 0.4 µM
